Results as given in publication PMC12040169 (PLOS Biology, 2025).

Test: in vitro
Conditions: human, hela cells, % viability

SMILES	viability at 28.5 h, 10 µM [%]
COc1ccc(CN2CCN(C(=O)c3cccc(F)c3)CC2)c(OC)c1OC [CBK074523]	95.5
CCOc1cccc(CNc2ccc(O)cc2)c1OCc1ccc(Cl)cc1Cl [CBK074528]	106
O=C1CC(N2CCN(Cc3ccc4c(c3)OCO4)CC2)C(=O)N1CCc1ccccc1 (stereo not shown) [CBK074541]	93.7
O=C1CC(N2CCN(Cc3ccc4c(c3)OCO4)CC2)C(=O)N1c1ccc(Cl)c(Cl)c1 (stereo not shown) [CBK074549]	99.4
O=C1CC(N2CCN(Cc3ccc4c(c3)OCO4)CC2)C(=O)N1c1cc(Cl)cc(Cl)c1 (stereo not shown) [CBK074554]	94.5
COc1ccc(CCN2C(=O)CC(N3CCN(Cc4ccc5c(c4)OCO5)CC3)C2=O)cc1OC (stereo not shown) [CBK074555]	88
O=[N+]([O-])c1ccc(CN2CCN(Cc3ccc4c(c3)OCO4)CC2)o1 [CBK074557]	88.7
CSc1ncc(CNCc2ccc3c(c2)OCO3)c(N)n1 [CBK074563]	89.6
COc1ccc(CNC(=O)c2sc3nc4c(c(C(F)(F)F)c3c2N)CCC4)cc1OC [CBK074568]	85.7
O=C(O)c1ccc(N2C(=O)CC(N3CCN(Cc4ccc5c(c4)OCO5)CC3)C2=O)cc1 (stereo not shown) [CBK074573]	87.1
O=S(=O)(c1cccc(C(F)(F)F)c1)N1CCN(Cc2ccc3c(c2)OCO3)CC1 [CBK074594]	89.8
O=S(=O)(c1c(F)cccc1F)N1CCN(Cc2ccc3c(c2)OCO3)CC1 [CBK074600]	91.5
COc1cc(CN2CCN(C(=O)c3cccc(F)c3)CC2)cc(OC)c1O [CBK074633]	95.2
OC(COc1ccc(OC(F)(F)F)cc1)CN1CCN(c2nc3ccc(Cl)cc3s2)CC1 (stereo not shown) [CBK074639]	122
OC(CNC1CCN(Cc2ccccc2)CC1)COc1ccc2c(c1)OCO2 (stereo not shown) [CBK074645]	96.5
O=[N+]([O-])c1ccc(OCC(O)CN2CCCN(c3nc4ccc(Cl)cc4s3)CC2)cc1 (stereo not shown) [CBK074647]	85.9
O=C1CC2(CCCC2)C(=O)N1c1ccc(S(=O)(=O)NC2CCN(Cc3ccccc3)CC2)cc1Cl [CBK074650]	99.8
O=C(NCCCN1CCN(Cc2ccccc2)CC1)c1cn2cc(C(F)(F)F)cc(Cl)c2n1 [CBK074654]	89.3
COc1cc2c(cc1OC)C(C)N(Cc1cc(C)c(O)c(C)c1)CC2 (stereo not shown) [CBK074659C]	99.9
COc1ccc(CCN2CN=C(SCc3ccc(Cl)cc3)NC2)cc1OC [CBK074665C]	95.3
OC(COc1cccc(C(F)(F)F)c1)CN1CCN(c2nc(-c3ccccc3)ns2)CC1 (stereo not shown) [CBK074678]	93
O=C(CN1CCN(c2ccc([N+](=O)[O-])cn2)CC1)Nc1ccc2c(c1)OCO2 [CBK074679]	115

SMILES	viability at 28.5 h, 10 µM [%]
OC(CSc1ccccc1)CN1CCN(C(c2ccccc2)c2ccccc2)CC1 (stereo not shown) [CBK074683]	91.3
OC(CSc1ccc(F)cc1)CN1CCN(c2ccc(C(F)(F)F)cn2)CC1 (stereo not shown) [CBK074688]	91.2
OC(CNCc1ccc2c(c1)OCO2)COc1ccc(SC(F)(F)F)cc1 (stereo not shown) [CBK074691]	120
OC(COc1ccc(F)cc1)CN1CCN(c2nc(-c3ccccc3)ns2)CC1 (stereo not shown) [CBK074698]	91.8
O=C(CN1CCN(c2ccc(C(F)(F)F)cn2)CC1)c1ccccc1 [CBK074699]	111
O=C(CN1CCN(c2ccc(C(F)(F)F)cn2)CC1)c1ccc2c(c1)OCCO2 [CBK074700]	98.3
O=C(c1cccc(CN2CCN(c3nc(-c4ccccc4)ns3)CC2)c1)N1CCC(O)CC1 [CBK074709]	110
O=C(CN1CCN(CCCc2c[nH]c3ccc(F)cc23)CC1)N(c1ccccc1)C1CCCCC1 [CBK074710]	92.1
O=C(CN1CCC(NC(=O)c2ccccc2)CC1)Nc1ccccc1 [CBK074716]	96.7
O=C(c1c(F)cccc1Cl)N1CCN(Cc2ccc3c(c2)OCO3)CC1 [CBK074724]	93.9
O=C(c1sccc1Br)N1CCN(Cc2ccc3c(c2)OCO3)CC1 [CBK074730]	100
CCCc1ccc(S(=O)(=O)N2CCN(Cc3ccc4c(c3)OCO4)CC2)cc1 [CBK074735]	107
OC(CSc1ccccc1)CN1CCN(Cc2ccc3c(c2)OCO3)CC1 (stereo not shown) [CBK074761]	87.2
O=C(CNCc1ccc2c(c1)OCO2)NCc1ccc2c(c1)OCO2 [CBK074763]	86.8
O=C(CNC1Cc2ccccc2C1)Nc1ccc(Cl)cc1C(=O)c1ccccc1Cl [CBK074764]	100
COc1cc(OCc2ccccc2)ccc1CN1CCN(Cc2ccccc2)CC1 [CBK074766]	88.1
N#Cc1cccc(NC(=O)CN2CCN(C(=O)C3COc4ccccc4O3)CC2)c1 (stereo not shown) [CBK074779]	93.5
O=S1(=O)CCN(Cc2ccc3c(c2)OCO3)CC1 [CBK074780]	93.9
O=S1(=O)CCN(CC2COc3ccccc3O2)CC1 (stereo not shown) [CBK074789]	88.5
COc1cc2cc(C(=O)N3CCN(Cc4ccc5c(c4)OCO5)CC3)c(=O)oc2cc1OC [CBK074790]	102
Nc1nc(C2COc3ccccc3O2)ncc1S(=O)(=O)c1ccc(Cl)cc1 (stereo not shown) [CBK074808]	96.2
O=S(=O)(CCN1CCN(C(c2ccccc2)c2ccccc2)CC1)c1ccc(Cl)cc1 [CBK074810]	92

SMILES	viability at 28.5 h, 10 µM [%]
COc1ccc(CCN2CNc3c(c(=O)n(C)c(=O)n3C)C2)cc1OC [CBK074818]	86
N[C@H](CSCc1ccccc1)C(=O)Nc1ccc([N+](=O)[O-])cc1 [CBK074824]	88.8
Cc1cc(C(=O)N2CCN(Cc3ccc4c(c3)OCO4)CC2)nn1C [CBK074832]	111
OC(CN1CCN(Cc2ccc3c(c2)OCO3)CC1)C(F)(F)F (stereo not shown) [CBK074833]	108
OC(CNCC1COc2ccccc2O1)C(F)(F)F (stereo not shown) [CBK074834]	102
COc1ccccc1N1CCN(CCCCNC(=O)c2ccc(Cl)cc2)CC1 [CBK074835]	93
CC(C)(C)C(=O)N1CCN(Cc2ccc3c(c2)OCO3)CC1 [CBK074842]	88.8
OC(COc1ccc2c(c1)OCO2)CN1CCN(C(c2ccccc2)c2ccccc2)CC1 (stereo not shown) [CBK074854C]	87.5
OC(COc1ccc(-c2ccccc2)cc1)CN1CCN(Cc2ccccc2)CC1 (stereo not shown) [CBK074855C]	94.6
COc1cccc(OCC(O)CN2CCN(Cc3ccccc3)CC2)c1 (stereo not shown) [CBK074856C]	108
CCCn1c(O)nnc1-c1cccnc1 [CBK074889]	86.8
CC(C)CC1OC(NC2CCCCCC2)=NC1=O (stereo not shown) [CBK074901]	88.8
Cc1ccccc1NC1=NC(=O)C(CC(C)C)O1 (stereo not shown) [CBK074902]	116
CC(C)(C)c1nnc(NCc2ccccc2)s1 [CBK074922]	95.7
CC(=O)N1CCc2c([nH]c3ccccc23)[C@@]12CCN(Cc1ccc(F)cc1)C2 [CBK074955]	83
COc1ccc([C@@]23CC[C@@H](NC(=O)Cc4ccc(Cl)cc4)CC2N(C)CC3)cc1OC (stereo partly shown) [CBK074971T]	96
COc1ccc([C@@]23CC[C@@H](NC(=O)c4ccc(-c5ccccc5)cc4)CC2N(C)CC3)cc1OC (stereo partly shown) [CBK074973T]	89.6
CCCc1[nH]nc(O)c1Cc1ccc(C(F)(F)F)cc1 [CBK075014]	88.9
COc1ccc(C(NC(=O)C2CCCN(C(=O)NC(=O)c3ccccc3)C2)c2ccccc2C)cn1 (stereo not shown) [CBK075023]	90.9
CCCc1[nH]nc(O)c1Cc1cc(F)ccc1Br [CBK075031]	94.6
CCCc1[nH]nc(O)c1Cc1cccc(C)c1 [CBK075035]	91.3
CCCc1[nH]nc(O)c1Cc1ccccc1C(F)(F)F [CBK075037]	92.7

SMILES	viability at 28.5 h, 10 µM [%]
COc1ccc(C(NC(=O)[C@H]2CCCN2C(=O)c2c(-c3ccccc3)noc2C)c2ccccc2C)cn1 (stereo partly shown) [CBK075055]	98.4
CC(C)(C)c1nsc(NC2CCCCCC2)n1 [CBK075061]	96.6
CCOC(=O)c1sc(-c2cccc(C(F)(F)F)c2)nc1O [CBK075064]	92
CCCc1[nH]nc(O)c1CCc1ccccc1 [CBK075083]	108
O=C1CCC(=O)N1CCOc1nccnc1OC1CCNCC1 [CBK075084T]	101
CCOC(=O)c1sc(-c2ccc(Br)cc2)nc1O [CBK075087]	103
COc1ccc([C@]23CN(C)C[C@H]2CCN(C(=O)Nc2cccc(Cl)c2)C3)cc1OC [CBK075104T]	112
COc1ccc([C@]23CN(C)C[C@H]2CCN(C(=O)Nc2cccc(Br)c2)C3)cc1OC [CBK075106T]	105
COc1ccc([C@]23CN(C)C[C@H]2CCN(C(=O)c2ccc4c(c2)OC(F)(F)O4)C3)cc1OC [CBK075110T]	94.8
COc1ccc(-c2c(O)n[nH]c2CCC2CCCC2)cc1 [CBK075126]	88.1
COc1ccccc1-c1c(O)n[nH]c1C(C)C [CBK075133]	111
CCN1C(=O)C2(CC(=O)N(CCCN(C)C(=O)c3ccco3)C2=O)c2cc(C)ccc21 (stereo not shown) [CBK075141]	94.3
COC(=O)CN1C(=O)CC2(C1=O)C(=O)N(Cc1ccccc1)c1ccc(F)cc12 (stereo not shown) [CBK075143]	95.7
CNC(=O)CN1C(=O)CC2(C1=O)C(=O)N(CCOC)c1ccc(OC)cc12 (stereo not shown) [CBK075144]	90.8
COCCN1C(=O)C2(CC(=O)N(CCCCC(C)C)C2=O)c2cc(OC)ccc21 (stereo not shown) [CBK075145]	109
C=CCN1C(=O)C2(CC(=O)N(Cc3ccc(OC)c(OC)c3)C2=O)c2ccccc21 (stereo not shown) [CBK075148]	114
C=CCN1C(=O)C2(CC(=O)N(CCOc3ccccc3)C2=O)c2ccccc21 (stereo not shown) [CBK075159]	101
COCCN1C(=O)C2(CC(=O)N(CC3CCCCC3)C2=O)c2cc(OC)ccc21 (stereo not shown) [CBK075166]	90
CCN1C(=O)C2(CC(=O)N(Cc3ccc(OC)c(OC)c3)C2=O)c2cc(C)ccc21 (stereo not shown) [CBK075172]	85.4
